pIC50: −log10 of the molar value. Converted amounts (≈) assume the structure as drawn. “And” between values parts separate entries of the source, which are not always exact repeats. Equal values may be shown once.
What was measured:
Liver microsomes [1] = assay: Metabolic stability in human liver microsome; assay type: ADME
Liver microsomes [2] = assay: Metabolic stability in rat liver microsome; assay type: ADME
[3] = molecular target: Glutamate receptor ionotropic, NMDA 1 (Homo sapiens, UniProt Q05586); assay: Antagonist activity at human NMDA NR1 receptor; assay type: functional
Rattus norvegicus [4] = assay: Anticonvulsant activity in Swiss Webster mouse at 100 mg/kg by MES assay; assay type: functional
[5] = (§1) Bioavailability in Sprague-Dawley rat at 5 mg/kg, po; assay type: ADME, organism-based; details: Sprague-Dawley, in vivo
[6] = AUC in Sprague-Dawley rat at 5 mg/kg, po; assay type: ADME, organism-based; design: dose 5 mg/kg, route oral; details: plasma
[7] = Solubility of the compound; assay type: physicochemical
[8] = Permeability from apical to basolateral side of the Caco-2 cell membrane; assay type: ADME, cell-based; details: human, read-out: permeability
Caco-2 = assay: Ratio of permeability from basolateral to apical over apical to basolateral side of the Caco-2 cell membrane; assay type: ADME, cell-based; details: human
Rattus norvegicus [9] = assay: […] in […] at 300 mg/kg, ip by MES assay; assay type: functional; details: route intraperitoneal
Rattus norvegicus [10] = assay: Analgesic activity in rat formalin pain model assessed as reduction in pain response at 50 mg/kg, ip; assay type: functional; design: scale not given: the % may be the effect or the level left; details: route intraperitoneal
Rattus norvegicus [11] = assay: as §1; assay type: ADME, organism-based; details: in vivo
Rattus norvegicus [12] = assay: Analgesic activity in rat formalin pain model assessed as reduction in pain response at 50 mg/kg, po; assay type: functional; design: scale not given: the % may be the effect or the level left

SMILES	Activity (Liver microsomes [1])	Activity (Liver microsomes [2])	pIC50 [3]	Activity (Rattus norvegicus [4])	bioavailability [5]	AUC [6]	solubility [7]	Papp A→B [8]	Ratio (Caco-2)	Activity (Rattus norvegicus [9])	Activity (Rattus norvegicus [10])	F (Rattus norvegicus [11])	Activity (Rattus norvegicus [12])
Cc1c(Cl)cc2[nH]c(=O)c(=O)[nH]c2c1N(CC(=O)O)S(C)(=O)=O	Active	Active	8.70	87.5%	7%	1500 ng·h/mL							
CC(O)CN(c1c(Cl)c(Cl)cc2[nH]c(=O)c(=O)[nH]c12)S(C)(=O)=O (stereo unspecified)	Active	Active	7.40		1%	680 ng·h/mL	76 µg/mL (≈ 199 µM)						
COc1cccc(CN(c2c(Cl)c(Cl)cc3[nH]c(=O)c(=O)[nH]c23)S(C)(=O)=O)c1	Active	Active	7.92		8%	152 ng·h/mL	40 µg/mL (≈ 90 µM)	3.43 ×10⁻⁶ cm/s	4.67				
Cc1cc2[nH]c(=O)c(=O)[nH]c2c(N(CC(=O)O)S(C)(=O)=O)c1Cl	Active	Active	9.00	62.5%	5%	155 ng·h/mL	72 µg/mL (≈ 199 µM)						
CS(=O)(=O)N(Cc1cccc(F)c1)c1c(Cl)c(Cl)cc2[nH]c(=O)c(=O)[nH]c12	Active	Active	7.35		10%	589 ng·h/mL	23 µg/mL (≈ 53.2 µM)	1.75 ×10⁻⁶ cm/s	4.07				
CS(=O)(=O)N(CC1CCCO1)c1c(Cl)c(Cl)cc2[nH]c(=O)c(=O)[nH]c12 (stereo unspecified)	Active	Active	7.23		31%	922 ng·h/mL	16 µg/mL (≈ 39.2 µM)	1.52 ×10⁻⁶ cm/s	7.55				
COCCN(c1c(Cl)c(Cl)cc2[nH]c(=O)c(=O)[nH]c12)S(C)(=O)=O	Active	Active	7.42		33%	1080 ng·h/mL	76 µg/mL (≈ 199 µM)	0.01 ×10⁻⁶ cm/s					
CCOCCN(c1c(Cl)c(Cl)cc2[nH]c(=O)c(=O)[nH]c12)S(C)(=O)=O	Active	Active	6.68		78%	2260 ng·h/mL	79 µg/mL (≈ 199 µM)	10 ×10⁻⁶ cm/s	1.38				
CS(=O)(=O)N(CCC(F)(F)F)c1c(Cl)c(Cl)cc2[nH]c(=O)c(=O)[nH]c12	Active	Active	7.66 and 7.96 and 7.74				56 µg/mL (≈ 133 µM)	0.41 ×10⁻⁶ cm/s	15	0%	40%		
COCCN(c1c(Cl)c(C)cc2[nH]c(=O)c(=O)[nH]c12)S(C)(=O)=O	Active	Active	7.11		57%	1190 ng·h/mL	72 µg/mL (≈ 199 µM)	0.14 ×10⁻⁶ cm/s	30.6				
COCCN(c1c(C)c(Cl)cc2[nH]c(=O)c(=O)[nH]c12)S(C)(=O)=O	Active	Active	7.13		100%	2620 ng·h/mL	72 µg/mL (≈ 199 µM)	0.01 ×10⁻⁶ cm/s					
CCc1cc2[nH]c(=O)c(=O)[nH]c2c(N(CCCOC)S(C)(=O)=O)c1Cl	Active	Active	7.31		47%	632 ng·h/mL	78 µg/mL (≈ 200 µM)	0.01 ×10⁻⁶ cm/s					
CS(=O)(=O)N(CC1CCCCO1)c1c(Cl)c(Cl)cc2[nH]c(=O)c(=O)[nH]c12 (stereo unspecified)	Active	Active	7.41		53%	1490 ng·h/mL	25 µg/mL (≈ 59.2 µM)	< 0.01 ×10⁻⁶ cm/s					
CCOCCOCCN(c1c(Cl)c(Cl)cc2[nH]c(=O)c(=O)[nH]c12)S(C)(=O)=O	Active	Active	6.78		90%	840 ng·h/mL	88 µg/mL (≈ 200 µM)	0.97 ×10⁻⁶ cm/s	12.4				
COCCCN(c1c(Cl)c(Cl)cc2[nH]c(=O)c(=O)[nH]c12)S(C)(=O)=O	Active	Active			41%		79 µg/mL (≈ 199 µM)	2.06 ×10⁻⁶ cm/s	6.05	20%		43% and 39%	
CCS(=O)(=O)N(CCC(F)(F)F)c1c(Cl)c(Cl)cc2[nH]c(=O)c(=O)[nH]c12	Active	Active	6.96 and 7.70 and 7.57		32%	3920 ng·h/mL				0%	60%		30%
COCCCN(c1cc(Cl)cc2[nH]c(=O)c(=O)[nH]c12)S(C)(=O)=O	Active	Active	6.14				72 µg/mL (≈ 199 µM)	0.01 ×10⁻⁶ cm/s	0.1				
CCOCCCN(c1c(Cl)c(Cl)cc2[nH]c(=O)c(=O)[nH]c12)S(C)(=O)=O	Active	Active	7.72		33%	1270 ng·h/mL	82 µg/mL (≈ 200 µM)	0.44 ×10⁻⁶ cm/s	28.4				
CS(=O)(=O)N(CCCO)c1c(Cl)c(Cl)cc2[nH]c(=O)c(=O)[nH]c12	Active	Active	7.39		1%	136 ng·h/mL	76 µg/mL (≈ 199 µM)						
CCc1c(Cl)cc2[nH]c(=O)c(=O)[nH]c2c1N(CCO)S(C)(=O)=O	Active	Active	7.24	0%	1%	183 ng·h/mL	72 µg/mL (≈ 199 µM)						
CS(=O)(=O)N(CC(=O)O)c1c(Cl)c(Cl)cc2[nH]c(=O)c(=O)[nH]c12	Active	Active	8.70	100%		393 ng·h/mL	76 µg/mL (≈ 199 µM)						
Cc1c(Cl)cc2[nH]c(=O)c(=O)[nH]c2c1N(CCO)S(C)(=O)=O	Active	Active	7.85	0%	4%	605 ng·h/mL	70 µg/mL (≈ 201 µM)						
Cc1cc2[nH]c(=O)c(=O)[nH]c2c(N(CCO)S(C)(=O)=O)c1Cl	Active	Active	8.40	0%	9%	791 ng·h/mL	70 µg/mL (≈ 201 µM)						
